From US10947242B2, “[1,2,4]triazolo[1,5and#8208;A]pyrimidine compounds as PDE2 inhibitors” (Janssen Pharmaceutica NV, priority 2016, dated 2021)
Several values for one entry are separate records, joined by “and”; a condition that tells them apart may be missing. Equal values may be shown once. Read-outs that look alike come from different tables or passages of the source.

Assays:
[1] = target: T1, Human recombinant PDE10A (hPDE10A) (Homo sapiens, UniProt Q9Y233); assay: In vitro assay PDE10A, human clone (SPA, 3H-cAMP hydrolysis); type: biochemical; conditions: human clone (h), default; for Emax: read-out: hPDE10A2 Emax; for IC50: read-out: hPDE10A2 pIC50 (converted)
T1 construct: His tag (inferred from metal chelate purification); made in house; host or cells: Sf9 insect cells (baculovirus)
T1 sequence (Q9Y233 267-1055): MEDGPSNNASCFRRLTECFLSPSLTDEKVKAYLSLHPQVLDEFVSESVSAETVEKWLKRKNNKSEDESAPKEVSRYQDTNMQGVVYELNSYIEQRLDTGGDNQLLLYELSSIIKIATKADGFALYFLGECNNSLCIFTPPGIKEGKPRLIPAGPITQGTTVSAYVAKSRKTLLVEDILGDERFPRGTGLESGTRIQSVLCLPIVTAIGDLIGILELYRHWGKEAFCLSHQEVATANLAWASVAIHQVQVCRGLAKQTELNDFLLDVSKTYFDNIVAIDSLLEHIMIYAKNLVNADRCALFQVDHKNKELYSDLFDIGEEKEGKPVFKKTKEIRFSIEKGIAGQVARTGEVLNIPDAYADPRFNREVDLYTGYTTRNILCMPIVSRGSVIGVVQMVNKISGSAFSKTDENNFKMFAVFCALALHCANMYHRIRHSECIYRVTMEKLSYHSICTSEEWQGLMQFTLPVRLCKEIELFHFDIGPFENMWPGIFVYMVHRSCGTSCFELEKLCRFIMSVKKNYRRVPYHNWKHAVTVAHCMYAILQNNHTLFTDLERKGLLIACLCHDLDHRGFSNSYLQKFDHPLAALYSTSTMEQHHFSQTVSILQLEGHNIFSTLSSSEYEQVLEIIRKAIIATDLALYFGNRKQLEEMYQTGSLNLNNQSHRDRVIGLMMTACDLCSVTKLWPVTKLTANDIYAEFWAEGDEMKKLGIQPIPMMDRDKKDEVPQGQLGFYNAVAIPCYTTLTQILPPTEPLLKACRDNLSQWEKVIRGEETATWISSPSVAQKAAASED
Procedure, shortened: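 Hydrolysis of 3H-cAMP (60 nM cAMP, 0.008 μCi tracer) proceeded for 60 min at room temperature, with the product detected by SPA bead scintillation counting. The enzyme was hPDE10A from baculovirus-infected Sf9 cells in Tris pH 7.8 buffer with MgCl2 and EGTA, and compounds were at 1% DMSO final. Blanks lacked enzyme.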

[2] = target: T2, Human recombinant PDE2A (hPDE2A) (Homo sapiens, UniProt O00408); assay: In vitro assay PDE2A (SPA, 3H-cGMP hydrolysis); type: biochemical; conditions: for Emax: read-out: hPDE2A Emax
T2 construct: His tag (inferred from metal chelate purification); made in house; host or cells: Sf9 insect cells (baculovirus)
T2 sequence (O00408 whole entry): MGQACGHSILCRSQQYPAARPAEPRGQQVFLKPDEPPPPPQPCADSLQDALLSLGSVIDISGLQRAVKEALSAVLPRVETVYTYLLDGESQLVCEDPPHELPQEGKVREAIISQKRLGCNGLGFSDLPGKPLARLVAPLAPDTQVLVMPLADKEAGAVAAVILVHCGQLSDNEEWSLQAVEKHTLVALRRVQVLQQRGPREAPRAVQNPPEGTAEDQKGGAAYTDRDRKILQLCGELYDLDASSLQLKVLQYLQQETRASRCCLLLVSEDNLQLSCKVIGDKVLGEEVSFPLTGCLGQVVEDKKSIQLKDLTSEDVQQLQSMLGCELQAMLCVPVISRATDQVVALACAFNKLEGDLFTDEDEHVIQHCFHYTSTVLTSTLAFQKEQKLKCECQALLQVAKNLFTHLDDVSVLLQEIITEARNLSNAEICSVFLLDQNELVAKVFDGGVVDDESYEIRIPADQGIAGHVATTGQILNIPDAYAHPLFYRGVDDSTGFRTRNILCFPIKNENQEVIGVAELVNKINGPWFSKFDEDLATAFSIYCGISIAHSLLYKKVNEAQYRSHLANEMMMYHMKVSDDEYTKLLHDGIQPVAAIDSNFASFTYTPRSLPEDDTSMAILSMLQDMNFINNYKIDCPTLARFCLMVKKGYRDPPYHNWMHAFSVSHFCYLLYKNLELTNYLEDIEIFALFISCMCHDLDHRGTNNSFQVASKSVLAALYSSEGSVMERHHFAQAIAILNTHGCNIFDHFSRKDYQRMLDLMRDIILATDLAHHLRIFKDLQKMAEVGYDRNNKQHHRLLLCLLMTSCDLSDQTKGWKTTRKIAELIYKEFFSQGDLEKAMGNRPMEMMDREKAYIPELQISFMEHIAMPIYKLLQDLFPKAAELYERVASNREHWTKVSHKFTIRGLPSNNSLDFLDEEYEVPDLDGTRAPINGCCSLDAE

[3] = target: T3, PDE2A (Rattus norvegicus, UniProt Q01062); assay: PDE2 occupancy by test compounds, ex-vivo autoradiography with [3H]B-17a; type: in vivo, Male Wistar rats; conditions: for ED50: read-out: PDE Occupancy ED50
T3 construct: Twenty μm-thick striatal sections were cut; from tissue; host or cells: rat brain, striatal sections
T3 sequence (Q01062 1-928): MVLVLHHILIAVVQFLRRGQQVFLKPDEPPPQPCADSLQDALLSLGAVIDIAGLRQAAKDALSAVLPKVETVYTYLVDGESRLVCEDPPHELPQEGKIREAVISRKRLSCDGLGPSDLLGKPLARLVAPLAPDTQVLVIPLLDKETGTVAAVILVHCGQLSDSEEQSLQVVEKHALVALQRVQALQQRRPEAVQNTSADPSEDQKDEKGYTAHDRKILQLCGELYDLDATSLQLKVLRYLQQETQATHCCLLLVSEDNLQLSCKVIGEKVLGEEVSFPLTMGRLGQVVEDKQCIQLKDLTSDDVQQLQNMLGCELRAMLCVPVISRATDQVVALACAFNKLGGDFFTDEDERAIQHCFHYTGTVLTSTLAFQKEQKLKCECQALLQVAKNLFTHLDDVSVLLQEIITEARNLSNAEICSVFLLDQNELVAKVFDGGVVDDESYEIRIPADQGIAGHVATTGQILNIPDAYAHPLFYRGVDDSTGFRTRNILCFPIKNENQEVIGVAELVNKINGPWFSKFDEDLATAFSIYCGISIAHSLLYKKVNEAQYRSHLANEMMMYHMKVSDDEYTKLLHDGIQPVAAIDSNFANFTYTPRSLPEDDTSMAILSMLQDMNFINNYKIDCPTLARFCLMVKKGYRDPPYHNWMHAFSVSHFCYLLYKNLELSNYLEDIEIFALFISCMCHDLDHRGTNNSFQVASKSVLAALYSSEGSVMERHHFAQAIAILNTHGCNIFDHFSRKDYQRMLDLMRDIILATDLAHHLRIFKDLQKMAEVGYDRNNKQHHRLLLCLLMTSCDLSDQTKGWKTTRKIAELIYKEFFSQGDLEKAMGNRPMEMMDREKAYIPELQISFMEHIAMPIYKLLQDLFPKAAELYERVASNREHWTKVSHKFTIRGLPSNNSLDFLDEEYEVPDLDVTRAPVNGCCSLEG

[4] = target: T4, Human recombinant PDE3A (hPDE3A) (Homo sapiens, UniProt Q14432); assay: In vitro assay PDE3A (SPA, 3H-cAMP hydrolysis); type: biochemical; conditions: for IC50: hPDE3B pIC50, read-out: pIC50 (converted); for Emax: read-out: hPDE3B Emax, read-out: Emax;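 as to all read-outs here: the method names PDE3A and the table heading PDE3B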
T4 construct: purchased Scottish Biomedical; host or cells: Sf9 insect cells
T4 sequence (Q14432 whole entry): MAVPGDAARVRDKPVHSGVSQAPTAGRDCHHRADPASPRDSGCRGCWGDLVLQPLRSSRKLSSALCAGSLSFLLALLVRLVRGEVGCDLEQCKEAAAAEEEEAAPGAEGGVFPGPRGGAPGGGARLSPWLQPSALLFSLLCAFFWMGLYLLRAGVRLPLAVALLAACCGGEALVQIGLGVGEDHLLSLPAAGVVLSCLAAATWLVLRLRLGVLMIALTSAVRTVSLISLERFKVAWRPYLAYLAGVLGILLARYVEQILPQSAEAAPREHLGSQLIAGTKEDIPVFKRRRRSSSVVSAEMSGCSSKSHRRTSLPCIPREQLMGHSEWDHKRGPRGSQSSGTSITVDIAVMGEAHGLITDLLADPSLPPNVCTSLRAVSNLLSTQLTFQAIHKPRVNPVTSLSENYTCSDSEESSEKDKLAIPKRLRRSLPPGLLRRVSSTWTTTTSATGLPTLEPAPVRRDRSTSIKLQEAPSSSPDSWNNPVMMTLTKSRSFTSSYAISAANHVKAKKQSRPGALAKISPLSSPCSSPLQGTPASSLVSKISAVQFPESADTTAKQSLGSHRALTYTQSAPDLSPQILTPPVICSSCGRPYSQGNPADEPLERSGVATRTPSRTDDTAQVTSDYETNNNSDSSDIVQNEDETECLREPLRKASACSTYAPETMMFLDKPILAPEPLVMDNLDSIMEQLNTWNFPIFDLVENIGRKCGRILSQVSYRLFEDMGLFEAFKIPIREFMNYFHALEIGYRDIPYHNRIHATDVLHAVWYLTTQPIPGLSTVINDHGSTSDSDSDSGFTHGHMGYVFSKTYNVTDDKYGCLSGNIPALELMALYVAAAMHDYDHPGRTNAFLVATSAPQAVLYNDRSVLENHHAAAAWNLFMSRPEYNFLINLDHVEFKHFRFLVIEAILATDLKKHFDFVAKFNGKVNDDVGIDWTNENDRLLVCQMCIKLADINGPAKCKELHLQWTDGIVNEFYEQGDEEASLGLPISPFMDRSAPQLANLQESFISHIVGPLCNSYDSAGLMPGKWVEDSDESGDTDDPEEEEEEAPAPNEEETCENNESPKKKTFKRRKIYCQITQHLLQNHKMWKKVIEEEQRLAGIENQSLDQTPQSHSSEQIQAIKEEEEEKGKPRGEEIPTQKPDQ
Procedure, shortened: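 Radiometric SPA measuring [3H]-cAMP hydrolysis (0.4 μM cAMP, 2.4 μCi/ml) over 60 min at room temperature, in Tris pH 7.8 buffer with MgCl2 and EGTA, 1% DMSO. Enzyme: recombinant human brain PDE3A expressed in Sf9 cells, used as partially purified lysate. Counts compared with enzyme-free blanks and vehicle controls.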

[5] = hPDE2A pIC50, human recombinant PDE2A, 10 μM cGMP substrate
[6] = po, 10 mg/kg, route PO (oral), percentage receptor occupancy, ex-vivo autoradiography, striatum
[7] = human recombinant PDE2A, 10 μM cGMP substrate, read-out: hPDE2A pIC50 (converted)
[8] = read-out: hPDE2A pIC50 (converted)
[9] = 10 mg/kg, route SC (subcutaneous), percentage receptor occupancy, ex-vivo autoradiography, striatum
[10] = sc, 10 mg/kg, route SC (subcutaneous), percentage receptor occupancy, ex-vivo autoradiography, striatum
[11] = route PO (oral), drug dose producing 50% receptor occupancy

SMILES | Emax [1] | IC50 [1] | IC50 ([2]; hPDE2A pIC50) | IC50 [2, 5] | Emax [2] | melting point | PDE2 Occupancy at 10 mg/kg ([3]; 10 mg/kg, route PO (oral), percentage receptor occupancy, ex-vivo autoradiography, striatum) | receptor occupancy at 10 mg/kg [3, 6] | IC50 [4] | Emax [4] | hPDE10A2 Emax [1] | IC50 [2, 7] | Emax ([2]; human recombinant PDE2A) | IC50 [2, 8] | receptor occupancy at 10 mg/kg [3, 9] | ED50 ([3]; po) | hPDE3B Emax [4] | receptor occupancy at 10 mg/kg [3, 10] | ED50 [3, 11]
COc1cc(C(=O)N2CC[C@@H](C)[C@H](c3cc(C)nc4ncnn34)C2)cc(Cl)n1 [Compound 22] | 99% | 15.8 nM | 2.34 nM | 2.34 nM | 100% | 217.82 °C | 30 | 18% | 1510 nM | 87% | – | – | – | – | – | – | – | – | –
O=C(c1ccc2ncsc2c1)N1[C@H]2CC[C@H](c3cc(C(F)F)nc4ncnn34)[C@@H]1CC2 [Compound 25a] | 94% | 589 nM and 389 nM | – | – | 100% | 240.33 °C | – | – | 8710 nM | 54% | 96 | 0.708 nM | 100% | 1.07 nM | 66% | 4 mg/kg | – | – | –
Cc1cc(C(=O)N2[C@H]3CC[C@H](c4cc(C(F)F)nc5ncnn45)[C@@H]2CC3)cc(C)n1 [Compound 29] | 90% | 692 nM | – | – | 101% | 176.52 °C | – | – | > 10000 nM | – | – | 1.51 nM | 101% | 1.51 nM | 31% | – | 18 | – | –
Cc1cc(C(=O)N2CC[C@@H](C)[C@H](c3cc(C(F)F)nc4ncnn34)C2)cnc1C [Compound 49] | 95% | 513 nM | – | – | 99% | 263.81 °C | – | – | 5750 nM | 42% | – | 2.09 nM | 99% | 2.09 nM | – | – | – | 12% | –
Cc1cnc(C(F)(F)F)cc1C(=O)N1CC[C@@H](C)[C@H](c2cc(C(F)F)nc3ncnn23)C1 [Compound 52] | 76% | 3020 nM | – | – | 101% | 228.39 °C | – | 2% | > 10000 nM | 22% | – | 13.8 nM | 101% | 13.8 nM | – | – | – | – | –
C[C@@H]1CCN(C(=O)c2cc3ccccc3o2)C[C@H]1c1cc(C(F)F)nc2ncnn12 [Compound 69] | 100% | 45.7 nM | – | – | 102% | 209.73 °C | – | 0% | 380 nM | 95% | – | 0.407 nM | 102% | 0.407 nM | – | – | – | – | –
C[C@@H]1CCN(C(=O)c2ccc(Cl)c(C3CC3)c2)C[C@H]1c1cc(C(F)F)nc2ncnn12 [Compound 72] | 92% | 105 nM | – | – | 100% | 177.6 °C | – | 0% | > 1000 nM | 46% | – | 1.02 nM | 100% | 1.02 nM | – | – | – | – | –
COc1c(C)cc(C(=O)N2CC[C@@H](C)[C@H](c3cc(C(F)F)nc4ncnn34)C2)cc1C [Compound 77] | 98% | 83.2 nM | – | – | 101% | 177.37 °C | – | 54% | 676 nM | 96% | – | 0.457 nM | 101% | 0.457 nM | – | – | – | – | 5.67 mg/kg
Cc1cc(C(=O)N2CC[C@@H](C)[C@H](c3cc(C(F)F)nc4ncnn34)C2)cc(C2CC2)n1 [Compound 93] | 99% | 36.3 nM and 39.8 nM | – | – | 101% | 201.12 °C | – | 85% | 2570 nM | 84% | – | 0.398 nM | 101% | 0.457 nM | – | – | – | – | 7.8 mg/kg
Cc1cc(Cl)cc(C(=O)N2CC[C@@H](C)[C@H](c3cc(C(F)F)nc4ncnn34)C2)c1 [Compound 102] | 95% | 26.3 nM | 0.676 nM | 0.676 nM | 100% | 215.44 °C | – | -4% | > 1000 nM | 44% | – | – | – | – | – | – | – | – | –
C[C@@H]1CCN(C(=O)c2ccc3cc[nH]c3c2)C[C@H]1c1cc(C(F)F)nc2ncnn12 [Compound 106] | 99% | 21.4 nM | – | – | 100% | 273.02 °C | – | 0% | 389 nM | 98% | – | 0.891 nM | 100% | 0.891 nM | – | – | – | – | –
COc1cc(C(=O)N2CC[C@@H](C)[C@H](c3cc(C(F)F)nc4ncnn34)C2)cc(Cl)n1 [Compound 108] | 99% | 52.5 nM | – | – | 100% | 151.39 °C | – | 65% | 2690 nM | 80% | – | 0.912 nM | 100% | 0.912 nM | – | – | – | – | 4.8 mg/kg
C[C@@H]1CCN(C(=O)c2ccc3ocnc3c2)C[C@H]1c1cc(C(F)F)nc2ncnn12 [Compound 116] | 99% | 9.77 nM and 79.4 nM | – | – | 101% | 192.09 °C | – | – | 2190 nM | 82% | 98 | 1.15 nM and 1.12 nM | 100% | 1.12 nM | – | – | – | 3% | –
C[C@@H]1CCN(C(=O)c2ccnc(C3CC3)c2F)C[C@H]1c1cc(C(F)F)nc2ncnn12 [Compound 120] | 96% | 200 nM | – | – | 100% | 173.99 °C | – | 12% | 708 nM | 95% | – | 1.74 nM | 100% | 1.74 nM | – | – | – | – | –
COc1cc(C(=O)N2CC[C@@H](C)[C@H](c3cc(C(F)F)nc4ncnn34)C2)cc(C(C)C)n1 [Compound 122] | 100% | 74.1 nM | – | – | 100% | 160.2 °C | – | 0% | 1820 nM | 86% | – | 1.86 nM | 100% | 1.86 nM | – | – | – | – | –
Cc1cc(C)cc(C(=O)N2CC[C@@H](C)[C@H](c3cc(C(F)F)nc4ncnn34)C2)c1 [Compound 123] | 99% | 91.2 nM | 1.95 nM | 1.95 nM | 99% | 203.87 °C | – | 4% | 1620 nM | 87% | – | – | – | – | – | – | – | – | –
Cc1csc(C(=O)N2CC[C@@H](C)[C@H](c3cc(C(F)F)nc4ncnn34)C2)c1 [Compound 126] | 97% | 112 nM | – | – | 101% | 114.32 °C | – | 31% | 6030 nM | 65% | – | 2.09 nM | 101% | 2.09 nM | – | – | – | – | –
Cc1nc2ccc(C(=O)N3CC[C@@H](C)[C@H](c4cc(C(F)F)nc5ncnn45)C3)cc2o1 [Compound 127] | 99% | 25.7 nM | – | – | 99% | 139.13 °C | – | 34% | 437 nM | 94% | – | 2.24 nM | 99% | 2.24 nM | – | – | – | 53% | –
